Columns and labels:
[1] = biological target: T1, Alpha-1B adrenergic receptor (Homo sapiens) (UniProt P35368); details: Compound concentration 10.0 uM
T1 sequence (whole entry): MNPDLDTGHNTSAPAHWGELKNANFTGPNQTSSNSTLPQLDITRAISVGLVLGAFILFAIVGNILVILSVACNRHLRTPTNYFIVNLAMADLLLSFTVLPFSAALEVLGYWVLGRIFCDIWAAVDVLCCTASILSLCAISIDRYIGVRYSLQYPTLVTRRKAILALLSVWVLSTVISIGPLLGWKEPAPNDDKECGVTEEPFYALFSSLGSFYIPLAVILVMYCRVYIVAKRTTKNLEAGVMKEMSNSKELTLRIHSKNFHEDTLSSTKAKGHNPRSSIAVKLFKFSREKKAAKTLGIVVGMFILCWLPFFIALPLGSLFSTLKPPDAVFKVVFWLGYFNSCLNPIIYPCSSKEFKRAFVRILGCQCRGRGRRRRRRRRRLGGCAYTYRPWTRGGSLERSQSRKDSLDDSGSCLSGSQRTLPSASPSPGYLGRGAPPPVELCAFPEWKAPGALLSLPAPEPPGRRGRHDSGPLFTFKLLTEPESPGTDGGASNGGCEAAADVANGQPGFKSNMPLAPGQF

[2] = biological target: Cyclin-dependent kinase 4 (Homo sapiens) (UniProt P11802); details: Compound concentration 1000.0 nM
Cyclin-dependent kinase 4 (Homo sapiens), sequence (P11802 whole entry): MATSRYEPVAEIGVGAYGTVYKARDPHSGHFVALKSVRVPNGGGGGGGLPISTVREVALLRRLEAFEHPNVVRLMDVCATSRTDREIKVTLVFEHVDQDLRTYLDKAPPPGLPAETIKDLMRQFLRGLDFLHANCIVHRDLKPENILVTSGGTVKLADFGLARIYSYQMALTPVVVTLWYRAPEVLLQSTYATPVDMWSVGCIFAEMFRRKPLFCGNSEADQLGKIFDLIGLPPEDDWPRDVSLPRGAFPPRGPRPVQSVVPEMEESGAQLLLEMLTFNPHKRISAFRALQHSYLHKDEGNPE

[3] = biological target: Dual serine/threonine and tyrosine protein kinase (Homo sapiens) (UniProt Q6XUX3); details: Compound concentration 1000.0 nM
Dual serine/threonine and tyrosine protein kinase (Homo sapiens), sequence (Q6XUX3 whole entry): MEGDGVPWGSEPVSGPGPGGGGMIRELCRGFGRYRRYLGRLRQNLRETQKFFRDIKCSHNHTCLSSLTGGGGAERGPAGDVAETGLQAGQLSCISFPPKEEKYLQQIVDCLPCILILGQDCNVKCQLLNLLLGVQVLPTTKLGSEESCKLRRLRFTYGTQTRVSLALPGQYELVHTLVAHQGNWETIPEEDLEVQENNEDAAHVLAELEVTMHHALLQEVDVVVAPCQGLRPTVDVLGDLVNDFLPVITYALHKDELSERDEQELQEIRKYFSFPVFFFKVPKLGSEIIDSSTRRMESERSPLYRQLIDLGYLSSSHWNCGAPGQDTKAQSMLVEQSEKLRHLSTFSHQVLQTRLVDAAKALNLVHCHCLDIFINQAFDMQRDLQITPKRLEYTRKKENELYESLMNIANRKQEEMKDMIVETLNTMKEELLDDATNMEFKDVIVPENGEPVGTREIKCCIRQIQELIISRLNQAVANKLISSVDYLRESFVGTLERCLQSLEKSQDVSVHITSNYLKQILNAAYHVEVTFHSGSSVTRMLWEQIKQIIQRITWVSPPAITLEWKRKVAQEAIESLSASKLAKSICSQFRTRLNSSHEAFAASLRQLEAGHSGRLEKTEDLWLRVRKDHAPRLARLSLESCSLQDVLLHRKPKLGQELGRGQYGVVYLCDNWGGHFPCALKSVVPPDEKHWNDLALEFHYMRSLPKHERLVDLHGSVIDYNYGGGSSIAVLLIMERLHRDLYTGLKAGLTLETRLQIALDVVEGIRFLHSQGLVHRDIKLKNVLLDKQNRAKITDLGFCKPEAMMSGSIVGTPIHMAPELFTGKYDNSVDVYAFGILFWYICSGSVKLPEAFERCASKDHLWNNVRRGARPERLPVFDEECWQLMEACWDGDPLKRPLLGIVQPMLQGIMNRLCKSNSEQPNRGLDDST

[4] = biological target: Serine/threonine-protein kinase 38 (Homo sapiens) (UniProt Q15208); details: Compound concentration 1000.0 nM
[5] = biological target: Microtubule-associated serine/threonine-protein kinase 1 (Homo sapiens) (UniProt Q9Y2H9); details: Compound concentration 1000.0 nM
[6] = biological target: Cyclin-dependent kinase 2 homolog (Plasmodium falciparum (isolate 3D7)) (UniProt P61075); details: Compound concentration 1000.0 nM
[7] = biological target: Dual specificity mitogen-activated protein kinase kinase 5 (Homo sapiens) (UniProt Q13163); details: Compound concentration 1000.0 nM
[8] = biological target: Casein kinase I isoform gamma-1 (Homo sapiens) (UniProt Q9HCP0); details: Compound concentration 1000.0 nM
[9] = biological target: Mitogen-activated protein kinase 8 (Homo sapiens) (UniProt P45983); details: Compound concentration 1000.0 nM
[10] = biological target: Rho-associated protein kinase 1 (Homo sapiens) (UniProt Q13464); details: Compound concentration 1000.0 nM
[11] = biological target: Cyclin-dependent kinase 3 (Homo sapiens) (UniProt Q00526); details: Compound concentration 1000.0 nM
Cyclin-dependent kinase 3 (Homo sapiens), sequence (Q00526 whole entry, looked up): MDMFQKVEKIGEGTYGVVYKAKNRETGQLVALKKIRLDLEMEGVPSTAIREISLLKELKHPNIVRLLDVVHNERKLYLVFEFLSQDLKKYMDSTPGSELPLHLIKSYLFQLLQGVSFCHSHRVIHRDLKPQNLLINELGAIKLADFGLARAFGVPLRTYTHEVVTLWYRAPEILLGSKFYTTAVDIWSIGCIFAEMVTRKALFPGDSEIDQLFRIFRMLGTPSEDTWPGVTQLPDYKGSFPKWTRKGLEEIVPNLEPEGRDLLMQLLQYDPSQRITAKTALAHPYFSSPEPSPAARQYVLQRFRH

[12] = biological target: SRSF protein kinase 3 (Homo sapiens) (UniProt Q9UPE1); details: Compound concentration 1000.0 nM
[13] = biological target: Inhibitor of nuclear factor kappa-B kinase subunit alpha (Homo sapiens) (UniProt O15111); details: Compound concentration 1000.0 nM
[14] = biological target: Phosphatidylinositol 4-phosphate 5-kinase type-1 alpha (Homo sapiens) (UniProt Q99755); details: Compound concentration 1000.0 nM
Phosphatidylinositol 4-phosphate 5-kinase type-1 alpha (Homo sapiens), sequence (Q99755 whole entry): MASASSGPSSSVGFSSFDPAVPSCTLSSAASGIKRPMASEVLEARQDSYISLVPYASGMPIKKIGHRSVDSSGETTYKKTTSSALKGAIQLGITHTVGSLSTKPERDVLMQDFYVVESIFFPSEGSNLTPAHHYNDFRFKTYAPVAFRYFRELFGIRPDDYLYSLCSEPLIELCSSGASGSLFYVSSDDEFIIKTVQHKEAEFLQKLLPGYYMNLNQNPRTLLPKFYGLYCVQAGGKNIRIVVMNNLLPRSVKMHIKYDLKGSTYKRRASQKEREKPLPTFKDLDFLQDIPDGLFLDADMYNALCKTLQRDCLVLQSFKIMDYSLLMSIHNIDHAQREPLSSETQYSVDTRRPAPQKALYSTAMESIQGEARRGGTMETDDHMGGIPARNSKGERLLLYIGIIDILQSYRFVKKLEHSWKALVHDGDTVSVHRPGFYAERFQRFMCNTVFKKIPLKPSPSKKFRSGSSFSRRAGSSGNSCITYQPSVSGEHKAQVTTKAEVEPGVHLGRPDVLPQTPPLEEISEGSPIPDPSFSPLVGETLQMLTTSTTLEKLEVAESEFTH

[15] = biological target: Serine/threonine-protein kinase 35 (Homo sapiens) (UniProt Q8TDR2); details: Compound concentration 1000.0 nM
Serine/threonine-protein kinase 35 (Homo sapiens), sequence (Q8TDR2 whole entry): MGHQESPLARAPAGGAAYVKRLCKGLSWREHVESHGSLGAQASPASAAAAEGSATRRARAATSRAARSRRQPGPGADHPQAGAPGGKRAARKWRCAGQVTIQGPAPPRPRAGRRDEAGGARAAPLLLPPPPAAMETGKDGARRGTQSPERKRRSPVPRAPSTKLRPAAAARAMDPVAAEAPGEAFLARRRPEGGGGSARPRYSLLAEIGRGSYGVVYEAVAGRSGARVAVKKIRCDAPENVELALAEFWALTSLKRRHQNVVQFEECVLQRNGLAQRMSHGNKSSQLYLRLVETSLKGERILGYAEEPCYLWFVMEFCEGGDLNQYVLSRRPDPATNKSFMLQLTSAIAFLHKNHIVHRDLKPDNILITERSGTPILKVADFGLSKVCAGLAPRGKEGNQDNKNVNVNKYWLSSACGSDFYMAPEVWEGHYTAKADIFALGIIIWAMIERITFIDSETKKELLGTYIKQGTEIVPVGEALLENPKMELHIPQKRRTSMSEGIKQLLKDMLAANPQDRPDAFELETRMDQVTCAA

[16] = biological target: Tyrosine-protein kinase receptor UFO (Homo sapiens) (UniProt P30530); details: Compound concentration 1000.0 nM
[17] = biological target: Serine/threonine-protein kinase OSR1 (Homo sapiens) (UniProt O95747); details: Compound concentration 1000.0 nM
[18] = biological target: Membrane-associated tyrosine- and threonine-specific cdc2-inhibitory kinase (Homo sapiens) (UniProt Q99640); details: Compound concentration 1000.0 nM
[19] = biological target: T2, Muscarinic acetylcholine receptor M1 (Homo sapiens) (UniProt P11229); assay: M1 (h) CEREP ligand profiling; details: filed as antagonist, Compound concentration 10.0 uM
T2 sequence (whole entry): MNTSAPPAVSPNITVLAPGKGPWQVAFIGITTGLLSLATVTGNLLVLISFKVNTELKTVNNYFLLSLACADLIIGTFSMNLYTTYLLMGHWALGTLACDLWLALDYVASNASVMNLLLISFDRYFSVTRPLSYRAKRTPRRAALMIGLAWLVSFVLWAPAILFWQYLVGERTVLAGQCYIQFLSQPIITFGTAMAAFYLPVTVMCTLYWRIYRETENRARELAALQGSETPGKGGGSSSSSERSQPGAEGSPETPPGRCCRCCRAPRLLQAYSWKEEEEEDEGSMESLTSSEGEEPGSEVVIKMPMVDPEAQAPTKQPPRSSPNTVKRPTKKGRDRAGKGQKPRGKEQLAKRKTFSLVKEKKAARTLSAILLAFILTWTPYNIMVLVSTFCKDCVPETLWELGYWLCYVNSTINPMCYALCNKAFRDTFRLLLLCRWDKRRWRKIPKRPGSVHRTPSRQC

[20] = biological target: Serine/threonine-protein kinase pim-1 (Homo sapiens) (UniProt P11309); details: Compound concentration 1000.0 nM
[21] = biological target: Tyrosine-protein kinase Fyn (Homo sapiens) (UniProt P06241); details: Compound concentration 1000.0 nM
[22] = biological target: STE20-like serine/threonine-protein kinase (Homo sapiens) (UniProt Q9H2G2); details: Compound concentration 1000.0 nM
[23] = biological target: 1-phosphatidylinositol 3-phosphate 5-kinase (Homo sapiens) (UniProt Q9Y2I7); details: Compound concentration 1000.0 nM
[24] = biological target: Serine/threonine-protein kinase PknB (Mycobacterium tuberculosis) (UniProt P9WI81); details: Compound concentration 1000.0 nM
Serine/threonine-protein kinase PknB (Mycobacterium tuberculosis), sequence (P9WI81 whole entry): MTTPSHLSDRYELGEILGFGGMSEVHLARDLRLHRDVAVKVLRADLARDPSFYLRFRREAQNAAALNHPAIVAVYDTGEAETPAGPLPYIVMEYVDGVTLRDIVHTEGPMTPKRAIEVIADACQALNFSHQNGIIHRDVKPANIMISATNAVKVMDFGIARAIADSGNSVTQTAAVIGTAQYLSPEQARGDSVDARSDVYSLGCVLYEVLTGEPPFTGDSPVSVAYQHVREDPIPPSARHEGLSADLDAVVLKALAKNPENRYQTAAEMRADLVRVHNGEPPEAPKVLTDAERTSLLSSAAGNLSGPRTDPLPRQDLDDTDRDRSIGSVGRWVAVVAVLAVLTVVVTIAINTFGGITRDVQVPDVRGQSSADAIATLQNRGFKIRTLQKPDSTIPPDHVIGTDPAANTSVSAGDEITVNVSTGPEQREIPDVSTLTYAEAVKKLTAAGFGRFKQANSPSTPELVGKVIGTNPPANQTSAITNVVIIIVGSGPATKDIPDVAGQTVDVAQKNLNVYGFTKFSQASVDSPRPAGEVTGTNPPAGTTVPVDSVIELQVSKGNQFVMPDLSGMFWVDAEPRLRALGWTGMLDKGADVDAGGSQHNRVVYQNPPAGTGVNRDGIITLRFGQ

[25] = biological target: Myosin light chain kinase 2, skeletal/cardiac muscle (Homo sapiens) (UniProt Q9H1R3); details: Compound concentration 1000.0 nM
[26] = biological target: Rhodopsin kinase GRK1 (Homo sapiens) (UniProt Q15835); details: Compound concentration 1000.0 nM
[27] = biological target: Mitogen-activated protein kinase kinase kinase 19 (Homo sapiens) (UniProt Q56UN5); details: Compound concentration 1000.0 nM
Mitogen-activated protein kinase kinase kinase 19 (Homo sapiens), sequence (Q56UN5 whole entry, the tested form may be a part): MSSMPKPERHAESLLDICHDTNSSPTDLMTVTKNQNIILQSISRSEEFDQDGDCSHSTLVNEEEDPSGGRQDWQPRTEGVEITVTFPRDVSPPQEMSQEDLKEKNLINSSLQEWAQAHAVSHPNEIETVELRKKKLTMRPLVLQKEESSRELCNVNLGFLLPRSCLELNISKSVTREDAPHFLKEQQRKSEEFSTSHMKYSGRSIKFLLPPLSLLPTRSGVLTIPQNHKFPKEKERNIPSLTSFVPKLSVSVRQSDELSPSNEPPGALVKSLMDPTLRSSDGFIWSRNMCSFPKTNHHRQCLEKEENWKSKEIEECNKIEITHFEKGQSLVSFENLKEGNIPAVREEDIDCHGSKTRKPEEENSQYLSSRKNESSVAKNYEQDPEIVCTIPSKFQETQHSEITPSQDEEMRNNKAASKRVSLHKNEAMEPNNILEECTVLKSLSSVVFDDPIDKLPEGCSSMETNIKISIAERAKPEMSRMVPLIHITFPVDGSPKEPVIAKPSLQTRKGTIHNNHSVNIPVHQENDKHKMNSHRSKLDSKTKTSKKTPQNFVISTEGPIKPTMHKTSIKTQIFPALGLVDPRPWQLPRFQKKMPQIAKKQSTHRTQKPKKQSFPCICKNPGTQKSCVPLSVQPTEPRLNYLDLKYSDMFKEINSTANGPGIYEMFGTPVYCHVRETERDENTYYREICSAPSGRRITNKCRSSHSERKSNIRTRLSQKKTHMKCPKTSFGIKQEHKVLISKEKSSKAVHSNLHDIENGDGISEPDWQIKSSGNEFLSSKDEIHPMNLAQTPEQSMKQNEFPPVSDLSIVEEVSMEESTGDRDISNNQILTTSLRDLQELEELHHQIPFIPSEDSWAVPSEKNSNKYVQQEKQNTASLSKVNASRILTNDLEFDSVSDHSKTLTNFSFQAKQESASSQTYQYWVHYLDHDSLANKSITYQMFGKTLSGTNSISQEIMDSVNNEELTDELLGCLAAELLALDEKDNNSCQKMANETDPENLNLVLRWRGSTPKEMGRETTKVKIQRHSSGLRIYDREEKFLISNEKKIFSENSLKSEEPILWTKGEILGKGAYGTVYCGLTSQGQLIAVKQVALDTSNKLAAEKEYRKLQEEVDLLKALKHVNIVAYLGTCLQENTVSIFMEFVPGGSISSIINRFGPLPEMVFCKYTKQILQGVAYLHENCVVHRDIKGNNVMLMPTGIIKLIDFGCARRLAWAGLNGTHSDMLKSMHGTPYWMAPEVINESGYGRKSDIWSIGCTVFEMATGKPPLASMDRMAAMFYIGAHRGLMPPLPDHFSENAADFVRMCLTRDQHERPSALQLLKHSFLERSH

[28] = biological target: Phosphatidylinositol 4-phosphate 3-kinase C2 domain-containing subunit beta (Homo sapiens) (UniProt O00750); details: Compound concentration 1000.0 nM
[29] = biological target: Mitogen-activated protein kinase 14 (Homo sapiens) (UniProt Q16539); details: Compound concentration 1000.0 nM
Mitogen-activated protein kinase 14 (Homo sapiens), sequence (Q16539 whole entry): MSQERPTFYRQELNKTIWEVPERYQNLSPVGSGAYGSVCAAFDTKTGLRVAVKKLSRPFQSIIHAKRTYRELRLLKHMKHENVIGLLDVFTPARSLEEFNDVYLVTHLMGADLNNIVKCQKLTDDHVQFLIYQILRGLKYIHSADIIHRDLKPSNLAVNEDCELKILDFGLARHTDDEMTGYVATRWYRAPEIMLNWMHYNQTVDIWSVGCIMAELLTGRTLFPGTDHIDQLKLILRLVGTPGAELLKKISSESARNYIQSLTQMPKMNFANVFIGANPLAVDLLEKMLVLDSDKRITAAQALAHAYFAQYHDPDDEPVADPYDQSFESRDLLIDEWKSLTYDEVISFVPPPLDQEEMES

[30] = biological target: RAC-alpha serine/threonine-protein kinase (Homo sapiens) (UniProt P31749); details: Compound concentration 1000.0 nM
[31] = biological target: Misshapen-like kinase 1 (Homo sapiens) (UniProt Q8N4C8); details: Compound concentration 1000.0 nM

CNC(=O)Nc1ccc2c(c1)CC[C@@]21OC(=O)N(CC(=O)N(Cc2ccc(F)cc2)[C@@H](C)C(F)(F)F)C1=O [A-485]
inactive: inhibition [1] 1.93% | residual activity [2] 55% | residual activity [3] 78% | residual activity [4] 100% | residual activity [5] 94% | residual activity [6] 91% | residual activity [7] 83% | residual activity [8] 94% | residual activity [9] 65% | residual activity [10] 72% | residual activity [11] 100% | residual activity [12] 95% | residual activity [13] 92% | residual activity [14] 95% | residual activity [15] 89% | residual activity [16] 90% | residual activity [17] 80% | residual activity [18] 74% | inhibition [19] -2% | residual activity [20] 100% | residual activity [21] 100% | residual activity [22] 82% | residual activity [23] 58% | residual activity [24] 83% | residual activity [25] 84% | residual activity [26] 82% | residual activity [27] 78% | residual activity [28] 100% | residual activity [29] 100% | residual activity [30] 91% | residual activity [31] 95%

CNC(=O)Nc1ccc2c(c1)[C@@]1(CC2)OC(=O)N(CC(=O)N(Cc2ccc(F)cc2)[C@@H](C)C(F)(F)F)C1=O [A-486]
inactive: inhibition [1] -1.33% | residual activity [2] 73% | residual activity [3] 89% | residual activity [4] 79% | residual activity [5] 85% | residual activity [6] 95% | residual activity [7] 89% | residual activity [8] 78% | residual activity [9] 71% | residual activity [10] 81% | residual activity [11] 100% | residual activity [12] 100% | residual activity [13] 100% | residual activity [14] 89% | residual activity [15] 85% | residual activity [16] 67% | residual activity [17] 65% | residual activity [18] 92% | inhibition [19] -8% | residual activity [20] 100% | residual activity [21] 79% | residual activity [22] 83% | residual activity [23] 72% | residual activity [24] 84% | residual activity [25] 77% | residual activity [26] 73% | residual activity [27] 73% | residual activity [28] 99% | residual activity [29] 100% | residual activity [30] 77% | residual activity [31] 78%
